Key:
Micrococcus luteus = assay: Agar plate filter disc test for antibacterial activity; conditions: for Zone size: agar plate seeded with Micrococcus luteus, 12 hours at 30° C.; for antibacterial activity against Micrococcus luteus: agar plates, in words
tuberculosis bacilli = conditions: in words, prior art; cited from earlier work
[1] = tested on: glutamate-aspartate transaminase; conditions: in words, prior art; cited from earlier work

With `NC1CCONC1=O` (racemic) [DL-cyclocanaline, 4-amino-tetrahydro-1,2-oxazin-3-one] the Zone size (Micrococcus luteus; Weight 400 micrograms on disc) was 48 mm, the Zone size (Micrococcus luteus; Weight 600 micrograms on disc) was 58 mm and the “antibacterial activity against Micrococcus luteus” value (Micrococcus luteus) was “exhibited activity”. The “activity against tuberculosis bacilli” value (tuberculosis bacilli) was “exhibits activity” and the “inhibition of glutamate-aspartate transaminase” value [1] was “known to inhibit”.

With `C[C@H](C(=O)O)N1OCCCC1=O` [Compound R, 2R-(3-Oxo-[1,2]Oxazinan-2-yl)-Propionic Acid] the Zone size (Micrococcus luteus; Weight 400 micrograms on disc) was 23 mm and the “antibacterial activity against Micrococcus luteus” value (Micrococcus luteus) was “exhibited activity”.

Molecule `CC(C(=O)O)N1OCCC(NC(=O)Cc2ccccc2)C1=O` (stereo not drawn) [UA, 2-(α-Carboxylethyl)-4-phenylacetylamino-1,2-oxazinan-3-one] has a melting point of 189 to 190 °C.

Work on `CC1=C(C(=O)O)N2C(=O)[C@@H](NC(=O)Cc3ccccc3)[C@H]2SC1` [desacetoxycephalosporin G] yielded a Zone size (Micrococcus luteus; Weight 10 micrograms on disc) of 39 mm.

From patent US20030232820A1, “Method for synthesizing oxazinones” (priority 2001, published 2003)
